Source: ChEMBL document CHEMBL1909046, “DrugMatrix in vitro pharmacology data”

What was measured:
[1] = molecular target: T1, C-X-C chemokine receptor type 1 (Homo sapiens, UniProt P25024); further: in other assays of this panel Not Active means under 50% inhibition at 10 µM
T1 sequence (P25024 whole entry): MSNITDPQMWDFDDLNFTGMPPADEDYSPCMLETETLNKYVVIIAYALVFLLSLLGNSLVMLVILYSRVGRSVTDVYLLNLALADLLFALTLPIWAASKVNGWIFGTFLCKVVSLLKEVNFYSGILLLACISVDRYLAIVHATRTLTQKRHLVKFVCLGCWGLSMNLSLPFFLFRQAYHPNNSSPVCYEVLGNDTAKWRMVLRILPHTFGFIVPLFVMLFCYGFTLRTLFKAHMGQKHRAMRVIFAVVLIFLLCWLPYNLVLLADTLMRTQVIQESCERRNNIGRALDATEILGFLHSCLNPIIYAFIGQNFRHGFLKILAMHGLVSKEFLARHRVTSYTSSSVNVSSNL

Calcitonin receptor = molecular target: T2, Calcitonin receptor (Homo sapiens, UniProt P30988); type: cell membranes, Membrane; conditions: t47d; further: in other assays of this panel Not Active means under 50% inhibition at 10 µM
T2 sequence (P30988 whole entry): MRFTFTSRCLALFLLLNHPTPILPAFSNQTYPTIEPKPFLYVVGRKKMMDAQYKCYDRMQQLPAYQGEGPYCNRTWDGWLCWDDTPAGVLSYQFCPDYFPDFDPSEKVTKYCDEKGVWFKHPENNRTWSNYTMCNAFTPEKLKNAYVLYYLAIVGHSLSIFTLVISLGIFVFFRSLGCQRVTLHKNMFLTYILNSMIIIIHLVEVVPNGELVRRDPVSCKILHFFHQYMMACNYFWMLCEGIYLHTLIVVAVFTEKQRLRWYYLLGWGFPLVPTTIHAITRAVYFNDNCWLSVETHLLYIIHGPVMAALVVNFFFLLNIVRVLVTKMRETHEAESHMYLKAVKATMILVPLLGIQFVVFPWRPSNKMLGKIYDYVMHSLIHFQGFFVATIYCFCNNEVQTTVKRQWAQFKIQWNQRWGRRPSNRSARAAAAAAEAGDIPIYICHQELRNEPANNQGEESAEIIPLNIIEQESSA

B2 bradykinin receptor = molecular target: T3, B2 bradykinin receptor (Homo sapiens, UniProt P30411); type: cell membranes, Membrane; conditions: chem-1; further: in other assays of this panel Not Active means under 50% inhibition at 10 µM
T3 sequence (P30411 whole entry): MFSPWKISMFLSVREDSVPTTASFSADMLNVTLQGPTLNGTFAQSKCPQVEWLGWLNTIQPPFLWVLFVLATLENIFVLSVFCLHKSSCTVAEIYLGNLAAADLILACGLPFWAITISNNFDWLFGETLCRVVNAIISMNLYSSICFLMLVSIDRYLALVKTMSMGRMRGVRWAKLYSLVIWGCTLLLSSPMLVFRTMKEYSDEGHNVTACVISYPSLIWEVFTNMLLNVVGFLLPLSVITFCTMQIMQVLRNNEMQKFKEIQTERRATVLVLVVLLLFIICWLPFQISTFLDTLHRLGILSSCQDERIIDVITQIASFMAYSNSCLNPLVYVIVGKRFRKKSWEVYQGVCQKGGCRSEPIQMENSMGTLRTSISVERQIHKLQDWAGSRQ

Cytochrome P450 1A2 = molecular target: T4, Cytochrome P450 1A2 (Homo sapiens, UniProt P05177); conditions: bti-tn-5b1-4; further: in other assays of this panel Not Active means under 50% inhibition at 10 µM
T4 sequence (P05177 whole entry): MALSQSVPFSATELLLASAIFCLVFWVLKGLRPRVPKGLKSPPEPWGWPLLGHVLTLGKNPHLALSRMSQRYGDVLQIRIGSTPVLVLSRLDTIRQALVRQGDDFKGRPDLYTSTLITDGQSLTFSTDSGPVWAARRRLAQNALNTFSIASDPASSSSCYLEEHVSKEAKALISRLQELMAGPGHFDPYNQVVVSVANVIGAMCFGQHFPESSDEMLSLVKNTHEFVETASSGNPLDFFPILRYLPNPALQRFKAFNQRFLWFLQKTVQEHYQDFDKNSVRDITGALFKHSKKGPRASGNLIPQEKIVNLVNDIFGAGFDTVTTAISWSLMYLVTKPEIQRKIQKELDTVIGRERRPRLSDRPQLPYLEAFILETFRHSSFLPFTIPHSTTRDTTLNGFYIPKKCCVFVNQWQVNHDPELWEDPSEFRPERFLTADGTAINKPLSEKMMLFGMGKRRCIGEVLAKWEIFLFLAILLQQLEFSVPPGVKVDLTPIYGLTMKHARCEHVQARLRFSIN

[2] = DRUGMATRIX: Calcium Channel Type L, Phenylalkylamine radioligand binding (ligand: [3H] (-)-Desmethoxyverapamil (D-888)); type: cell membranes, Rattus norvegicus, Wistar, Brain, Membrane; conditions: Not Active = under 50% inhibition at 10 µM
[3] = molecular target: Kappa-type opioid receptor (Homo sapiens, UniProt P41145); assay: DRUGMATRIX: Opiate kappa (OP2, KOP) radioligand binding (ligand: [3H] Diprenorphine); type: cell membranes, HEK293, Membrane; conditions: hek293; Not Active = under 50% inhibition at 10 µM
[4] = DRUGMATRIX: GABAA, Muscimol, Central radioligand binding (ligand: [3H] Muscimol); type: cell membranes, Rattus norvegicus, Wistar, Brain, Membrane; conditions: Not Active = under 50% inhibition at 10 µM
Nitric oxide synthase 1 = Nitric oxide synthase 1 (Rattus norvegicus, UniProt P29476); type: tissue-based, Cerebellum; further: in other assays of this panel Not Active means under 50% inhibition at 10 µM
Sequence of Nitric oxide synthase 1 (P29476 whole entry): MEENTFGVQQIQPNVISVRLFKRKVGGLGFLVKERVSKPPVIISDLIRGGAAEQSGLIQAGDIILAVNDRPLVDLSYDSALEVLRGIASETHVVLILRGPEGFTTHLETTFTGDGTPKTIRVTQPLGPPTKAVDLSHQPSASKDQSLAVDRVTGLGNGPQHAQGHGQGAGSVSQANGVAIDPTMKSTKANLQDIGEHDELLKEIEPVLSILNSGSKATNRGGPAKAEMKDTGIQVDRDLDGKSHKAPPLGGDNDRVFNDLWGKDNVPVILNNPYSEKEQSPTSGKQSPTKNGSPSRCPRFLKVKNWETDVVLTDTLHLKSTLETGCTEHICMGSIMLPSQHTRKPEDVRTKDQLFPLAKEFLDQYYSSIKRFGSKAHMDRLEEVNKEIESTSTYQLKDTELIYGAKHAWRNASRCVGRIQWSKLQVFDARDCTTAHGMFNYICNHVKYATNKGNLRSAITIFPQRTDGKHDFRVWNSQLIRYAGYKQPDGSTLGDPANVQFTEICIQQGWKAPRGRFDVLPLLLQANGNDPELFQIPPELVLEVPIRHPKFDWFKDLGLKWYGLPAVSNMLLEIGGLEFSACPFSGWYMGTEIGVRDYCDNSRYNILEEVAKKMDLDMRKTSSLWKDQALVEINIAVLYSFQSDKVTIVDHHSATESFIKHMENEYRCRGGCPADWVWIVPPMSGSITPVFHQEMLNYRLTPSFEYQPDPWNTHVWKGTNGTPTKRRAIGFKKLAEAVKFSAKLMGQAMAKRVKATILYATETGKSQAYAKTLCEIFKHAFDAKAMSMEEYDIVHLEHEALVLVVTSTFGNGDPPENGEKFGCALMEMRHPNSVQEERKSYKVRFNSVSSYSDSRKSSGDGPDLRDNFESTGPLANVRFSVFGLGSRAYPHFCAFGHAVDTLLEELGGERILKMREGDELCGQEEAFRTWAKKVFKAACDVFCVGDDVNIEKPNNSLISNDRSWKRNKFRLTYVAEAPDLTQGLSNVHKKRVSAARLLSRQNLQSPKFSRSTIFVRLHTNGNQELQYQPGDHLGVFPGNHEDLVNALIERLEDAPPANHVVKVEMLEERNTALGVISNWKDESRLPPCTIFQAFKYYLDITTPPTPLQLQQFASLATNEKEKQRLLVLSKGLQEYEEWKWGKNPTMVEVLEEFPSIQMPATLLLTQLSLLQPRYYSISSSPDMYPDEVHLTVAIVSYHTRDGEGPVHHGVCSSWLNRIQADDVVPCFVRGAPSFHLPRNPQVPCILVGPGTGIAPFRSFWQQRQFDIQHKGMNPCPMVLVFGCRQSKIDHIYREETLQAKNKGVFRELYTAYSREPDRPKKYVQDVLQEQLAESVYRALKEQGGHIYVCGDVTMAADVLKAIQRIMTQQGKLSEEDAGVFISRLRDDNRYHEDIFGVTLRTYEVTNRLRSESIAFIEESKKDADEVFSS

Sequence of Kappa-type opioid receptor (P41145 whole entry): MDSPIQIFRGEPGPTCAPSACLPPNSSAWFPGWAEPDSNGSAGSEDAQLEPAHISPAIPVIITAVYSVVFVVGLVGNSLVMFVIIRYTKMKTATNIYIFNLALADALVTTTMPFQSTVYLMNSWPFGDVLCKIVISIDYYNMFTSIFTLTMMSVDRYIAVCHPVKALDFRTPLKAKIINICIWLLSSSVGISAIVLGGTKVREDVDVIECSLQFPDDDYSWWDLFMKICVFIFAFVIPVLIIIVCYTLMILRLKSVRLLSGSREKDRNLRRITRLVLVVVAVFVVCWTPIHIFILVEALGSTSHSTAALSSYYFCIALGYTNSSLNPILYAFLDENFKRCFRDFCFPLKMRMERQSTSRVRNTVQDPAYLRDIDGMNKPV

Nn1nnc2ccccc21
Not Active: IC50 [1] | IC50 (Calcitonin receptor) | IC50 (B2 bradykinin receptor) | IC50 (Cytochrome P450 1A2) | Ki (Cytochrome P450 1A2) | IC50 [2] | Ki [2] | IC50 [3] | IC50 [4] | Ki [4] | IC50 (Nitric oxide synthase 1)

CC[C@]1(O)CC[C@H]2[C@@H]3CCC4=CCCC[C@@H]4[C@H]3CC[C@@]21C
Not Active: IC50 [1] | IC50 (Calcitonin receptor) | IC50 (B2 bradykinin receptor) | IC50 (Cytochrome P450 1A2) | Ki (Cytochrome P450 1A2) | IC50 [2] | Ki [2] | IC50 [3] | IC50 [4] | Ki [4] | IC50 (Nitric oxide synthase 1)

CCOC(=O)[C@H](CCc1ccccc1)N[C@@H](C)C(=O)N1Cc2ccccc2C[C@H]1C(=O)O
Not Active: IC50 [1] | IC50 (Calcitonin receptor) | IC50 (B2 bradykinin receptor) | IC50 (Cytochrome P450 1A2) | Ki (Cytochrome P450 1A2) | IC50 [2] | Ki [2] | IC50 [3] | IC50 [4] | Ki [4] | IC50 (Nitric oxide synthase 1)

O=C(c1ccccc1Cl)N1CCC(Cc2ccccc2)CC1
Not Active: IC50 [1] | IC50 (Calcitonin receptor) | IC50 (B2 bradykinin receptor) | IC50 (Cytochrome P450 1A2) | Ki (Cytochrome P450 1A2) | IC50 [2] | Ki [2] | IC50 [3] | IC50 [4] | Ki [4] | IC50 (Nitric oxide synthase 1)

CCOC(=O)[C@H](CCc1ccccc1)N[C@@H](C)C(=O)N1CCC[C@H]1C(=O)O
Not Active: IC50 [1] | IC50 (Calcitonin receptor) | IC50 (B2 bradykinin receptor) | IC50 (Cytochrome P450 1A2) | Ki (Cytochrome P450 1A2) | IC50 [2] | Ki [2] | IC50 [3] | IC50 [4] | Ki [4] | IC50 (Nitric oxide synthase 1)

C=C1/C(=C\C=C2/CCC[C@]3(C)[C@@H]([C@H](C)CCCC(C)C)CC[C@@H]23)C[C@@H](O)C[C@@H]1O [ALFACALCIDOL]
Not Active: IC50 [1] | IC50 (Calcitonin receptor) | IC50 (B2 bradykinin receptor) | IC50 (Cytochrome P450 1A2) | Ki (Cytochrome P450 1A2) | IC50 [2] | Ki [2] | IC50 [3] | IC50 [4] | Ki [4] | IC50 (Nitric oxide synthase 1)

CCCCCC[C@H]1C(=O)O[C@H](C)[C@H](NC(=O)c2cccc(NC=O)c2O)C(=O)O[C@@H](C)[C@@H]1OC(=O)CC(C)C [ANTIMYCIN A]
Not Active: IC50 [1] | IC50 (Calcitonin receptor) | IC50 (B2 bradykinin receptor) | IC50 (Cytochrome P450 1A2) | Ki (Cytochrome P450 1A2) | IC50 [2] | Ki [2] | IC50 [3] | IC50 [4] | Ki [4] | IC50 (Nitric oxide synthase 1)

CO[C@H]1[C@@H](O)[C@H](N)[C@@H](O[C@H]2O[C@H]([C@H](C)N)CC[C@H]2N)[C@H](O)[C@@H]1N(C)C(=O)CN [ASTROMICIN]
Not Active: IC50 [1] | IC50 (Calcitonin receptor) | IC50 (B2 bradykinin receptor) | IC50 (Cytochrome P450 1A2) | Ki (Cytochrome P450 1A2) | IC50 [2] | Ki [2] | IC50 [3] | IC50 [4] | Ki [4] | IC50 (Nitric oxide synthase 1)

[N-]=[N+]=CC(=O)OC[C@H](N)C(=O)O [AZASERINE]
Not Active: IC50 [1] | IC50 (Calcitonin receptor) | IC50 (B2 bradykinin receptor) | IC50 (Cytochrome P450 1A2) | Ki (Cytochrome P450 1A2) | IC50 [2] | Ki [2] | IC50 [3] | IC50 [4] | Ki [4] | IC50 (Nitric oxide synthase 1)

CC[C@H]1OC(=O)[C@H](C)[C@@H](O[C@H]2C[C@@](C)(OC)[C@@H](O)[C@H](C)O2)[C@H](C)[C@@H](O[C@@H]2O[C@H](C)C[C@H](N(C)C)[C@H]2O)[C@](C)(O)C[C@@H](C)CN(C)[C@H](C)[C@@H](O)[C@]1(C)O [AZITHROMYCIN]
Not Active: IC50 [1] | IC50 (Calcitonin receptor) | IC50 (B2 bradykinin receptor) | IC50 (Cytochrome P450 1A2) | Ki (Cytochrome P450 1A2) | IC50 [2] | Ki [2] | IC50 [3] | IC50 [4] | Ki [4] | IC50 (Nitric oxide synthase 1)

CC(C)(C)c1ccc(S(=O)(=O)/C=C/C#N)cc1 [BAY-11-7085]
Not Active: IC50 [1] | IC50 (Calcitonin receptor) | IC50 (B2 bradykinin receptor) | IC50 (Cytochrome P450 1A2) | Ki (Cytochrome P450 1A2) | IC50 [2] | Ki [2] | IC50 [3] | IC50 [4] | Ki [4] | IC50 (Nitric oxide synthase 1)

CCc1oc2ccccc2c1C(=O)c1cc(Br)c(O)c(Br)c1 [BENZBROMARONE]
Not Active: IC50 [1] | IC50 (Calcitonin receptor) | IC50 (B2 bradykinin receptor) | IC50 (Cytochrome P450 1A2) | Ki (Cytochrome P450 1A2) | IC50 [2] | Ki [2] | IC50 [3] | IC50 [4] | Ki [4] | IC50 (Nitric oxide synthase 1)

O=c1cc(-c2ccccc2)oc2ccc3ccccc3c12 [BETA-NAPHTHOFLAVONE]
Not Active: IC50 [1] | IC50 (Calcitonin receptor) | IC50 (B2 bradykinin receptor) | IC50 (Cytochrome P450 1A2) | Ki (Cytochrome P450 1A2) | IC50 [2] | Ki [2] | IC50 [3] | IC50 [4] | Ki [4] | IC50 (Nitric oxide synthase 1)

CS(=O)(=O)OCCCCOS(C)(=O)=O [BUSULFAN]
Not Active: IC50 [1] | IC50 (Calcitonin receptor) | IC50 (B2 bradykinin receptor) | IC50 (Cytochrome P450 1A2) | Ki (Cytochrome P450 1A2) | IC50 [2] | Ki [2] | IC50 [3] | IC50 [4] | Ki [4] | IC50 (Nitric oxide synthase 1)

O=C(/C=C/c1ccc(O)c(O)c1)OCCc1ccccc1 [CAFFEIC ACID PHENETHYL ESTER]
Not Active: IC50 [1] | IC50 (Calcitonin receptor) | IC50 (B2 bradykinin receptor) | IC50 (Cytochrome P450 1A2) | Ki (Cytochrome P450 1A2) | IC50 [2] | Ki [2] | IC50 [3] | IC50 [4] | Ki [4] | IC50 (Nitric oxide synthase 1)

NC(=O)N1c2ccccc2C=Cc2ccccc21 [CARBAMAZEPINE]
Not Active: IC50 [1] | IC50 (Calcitonin receptor) | IC50 (B2 bradykinin receptor) | IC50 (Cytochrome P450 1A2) | Ki (Cytochrome P450 1A2) | IC50 [2] | Ki [2] | IC50 [3] | IC50 [4] | Ki [4] | IC50 (Nitric oxide synthase 1)

CCOC(=O)n1ccn(C)c1=S [CARBIMAZOLE]
Not Active: IC50 [1] | IC50 (Calcitonin receptor) | IC50 (B2 bradykinin receptor) | IC50 (Cytochrome P450 1A2) | Ki (Cytochrome P450 1A2) | IC50 [2] | Ki [2] | IC50 [3] | IC50 [4] | Ki [4] | IC50 (Nitric oxide synthase 1)

Oc1ccccc1O [CATECHOL]
Not Active: IC50 [1] | IC50 (Calcitonin receptor) | IC50 (B2 bradykinin receptor) | IC50 (Cytochrome P450 1A2) | Ki (Cytochrome P450 1A2) | IC50 [2] | Ki [2] | IC50 [3] | IC50 [4] | Ki [4] | IC50 (Nitric oxide synthase 1)

CO[C@@]1(NC(=O)CSCC#N)C(=O)N2C(C(=O)O)=C(CSc3nnnn3C)CS[C@@H]21 [CEFMETAZOLE]
Not Active: IC50 [1] | IC50 (Calcitonin receptor) | IC50 (B2 bradykinin receptor) | IC50 (Cytochrome P450 1A2) | Ki (Cytochrome P450 1A2) | IC50 [2] | Ki [2] | IC50 [3] | IC50 [4] | Ki [4] | IC50 (Nitric oxide synthase 1)
